Measured values from patent US20240059698A1 (Accutar Biotechnology Inc., priority 2022, published 2024).
Read-outs that look alike come from different tables or passages of the source.

How the values were obtained:
Assay type in all cases: cell-based
HCC827 cells = assay: Cell growth inhibition (CellTiter-Glo), HCC827; conditions: Homo sapiens, 72 h, 3 days
Summary of the method: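 HCC827 cells in RPMI and A431 cells in DMEM (both 10% FBS) were seeded at 5000 cells/well and left overnight. They were then exposed to compound dilutions for 3 days at 37° C. Viability was read by CellTiter-Glo luminescence.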

[1] = tested on: HCC827-SVD cells (human EGFR exon 20 insertion mutant D770_N771insSVD); assay: Cell growth inhibition (CellTiter-Glo), HCC827-SVD; conditions: 72 h, 3 days
Summary of the method: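 HCC827 cells with endogenous EGFR knocked out and lentivirally expressing the insertion mutant (single clone) were seeded at 5000 cells/well in RPMI with 10% FBS. After overnight, compounds added; 3 days at 37 °C, then CellTiter-Glo luminescence.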

[2] = tested on: HCC827-YVMA cells (human ERBB2 exon20 insertion mutant A775_G776ins YVMA); assay: Cell growth inhibition (CellTiter-Glo), HCC827-YVMA; conditions: 72 h, read-out: Cell growth inhibition, GI50 (nM) HCC827-YVMA
Summary of the method: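 HCC827 cells transduced with lentiviral codon-optimized mutant (ERBB2 A775_G776insYVMA or EGFR V769_D770insASV), endogenous EGFR knocked out by CRISPR, single clone selected. Cells seeded overnight in RPMI/10% FBS, then exposed to serially diluted compounds at 37 °C for 3 days; viability read by CellTiter-Glo luminescence.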

A431 cells = assay: Cell growth inhibition (CellTiter-Glo), A431; conditions: Homo sapiens, A-431, 72 h, 3 days
Protocol: 2. Cell Growth Inhibition for HCC827, HCC827-SVD, HCC827-ASV, HCC827-YVMA, and A431.
HCC827(ATCC), HCC827-SVD, HCC827-ASV, and HCC827-YVMA cells were seeded in 96-well plates at 5000 cells/well in 90 μL of RPMI growth medium containing 10% FBS and 1% Penicillin Streptomycin. A431 (ATCC) cells were seeded in 96-well plates at 5000 cells/well in 90 μL of DMEM growth medium containing 10% FBS and 1% Penicillin Streptomycin. Cells were incubated at 37° C. overnight and then administered with 10 μL 10× test compounds prepared in the growth medium at various concentrations. After administration of the compounds, cells were incubated at 37° C. for 3 days. Before the CellTiter-Glo assay, the plates were equilibrated at room temperature for approximately 30 minutes. 100 ul of CellTiter-Glo reagent (Promega) was added to each well. The plates were then incubated at room temperature for 10 minutes and luminescence was recorded by the EnSight® multimode plate reader (PerkinElmer). Table 7 listed selected compounds in cellular growth assay.

[3] = HCC827-YVMA cells, 3 days, CellTiter-Glo

| SMILES | GI50 (HCC827 cells) | GI50 [1] | GI50 (A431 cells) | GI50 [2, 3] | GI50 [2] |
| --- | --- | --- | --- | --- | --- |
| C=CC(=O)N1CCC(c2n[nH]c3ncnc(Nc4ccc(Oc5ccnc(-c6csc(C)n6)c5)cc4F)c23)CC1 [Compound 171, 1-(4-(4-((2-fluoro-4-((2-(2-methylthiazol-4-yl)pyridin-4-yl)oxy)phenyl)amino)-1H-pyrazolo[3,4-d]pyrimidin-3-yl)piperidin-1-yl)prop-2-en-1-one] | 200 to 1000 nM | 50 to 200 nM | > 1000 nM |  | < 50 nM |
| C=CC(=O)N1CCC(c2n[nH]c3ncnc(Nc4ccc(Oc5ccnc(N6C[C@H](OC)[C@H](OC)C6)c5)cc4F)c23)CC1 [Compound 176, 1-(4-(4-((4-((2-((3S,4R)-3,4-dimethoxypyrrolidin-1-yl)pyridin-4-yl)oxy)-2-fluorophenyl)amino)-1H-pyrazolo[3,4-d]pyrimidin-3-yl)piperidin-1-yl)prop-2-en-1-one] | > 1000 nM | 200 to 1000 nM | > 1000 nM | 200 to 1000 nM |  |
| C=CC(=O)N1CCC(c2n[nH]c3ncnc(Nc4ccc(Oc5ccnc(N6CC(C)(OC)C6)c5)cc4F)c23)CC1 [Compound 178, 1-(4-(4-((2-fluoro-4-((2-(3-methoxy-3-methylazetidin-1-yl)pyridin-4-yl)oxy)phenyl)amino)-1H-pyrazolo[3,4-d]pyrimidin-3-yl)piperidin-1-yl)prop-2-en-1-one] | > 1000 nM | 200 to 1000 nM | > 1000 nM | 50 to 200 nM |  |
| C=CC(=O)N1CCC(c2n[nH]c3ncnc(Nc4ccc(Oc5ccnc(N6CC7(CCOCC7)C6)c5)cc4F)c23)CC1 [Compound 181, 1-(4-(4-((4-((2-(7-oxa-2-azaspiro[3.5]nonan-2-yl)pyridin-4-yl)oxy)-2-fluorophenyl)amino)-1H-pyrazolo[3,4-d]pyrimidin-3-yl)piperidin-1-yl)prop-2-en-1-one] | > 1000 nM | 50 to 200 nM | > 1000 nM | 50 to 200 nM |  |
| C=CC(=O)N1CCC(c2n[nH]c3ncnc(Nc4ccc(Oc5nc(-c6ccc(C(F)(F)F)nc6)cs5)cc4F)c23)CC1 [Compound 188, 1-(4-(4-((2-fluoro-4-((4-(6-(trifluoromethyl)pyridin-3-yl)thiazol-2-yl)oxy)phenyl)amino)-1H-pyrazolo[3,4-d]pyrimidin-3-yl)piperidin-1-yl)prop-2-en-1-one] | 200 to 1000 nM | 50 to 200 nM | > 1000 nM | 50 to 200 nM |  |
| C=CC(=O)N1CCC(c2n[nH]c3ncnc(Nc4ccc(Oc5nc(-c6cnc(C)c(F)c6)cs5)cc4F)c23)CC1 [Compound 190, 1-[4-[4-[2-fluoro-4-[4-(5-fluoro-6-methyl-3-pyridyl)thiazol-2-yl]oxy-anilino]-1H-pyrazolo[3,4-d]pyrimidin-3-yl]-1-piperidyl]prop-2-en-1-one] | 200 to 1000 nM | 50 to 200 nM | > 1000 nM | 50 to 200 nM |  |
| C=CC(=O)N1CCC(c2n[nH]c3ncnc(Nc4ccc(Oc5nc(-c6ccnn6C)cs5)cc4F)c23)CC1 [Compound 191, 1-(4-(4-((2-fluoro-4-((4-(1-methyl-1H-pyrazol-5-yl)thiazol-2-yl)oxy)phenyl)amino)-1H-pyrazolo[3,4-d]pyrimidin-3-yl)piperidin-1-yl)prop-2-en-1-one] | 200 to 1000 nM | 200 to 1000 nM | > 1000 nM | 200 to 1000 nM |  |

Further lines, with some results ahead:

| GI50 (HCC827 cells) | GI50 [1] | GI50 (A431 cells) | GI50 [2, 3] | SMILES | GI50 [2] |
| --- | --- | --- | --- | --- | --- |
| 200 to 1000 nM | 50 to 200 nM | > 1000 nM | 50 to 200 nM | C=CC(=O)N1CCC(c2n[nH]c3ncnc(Nc4ccc(Oc5ccnc(N6CCO[C@H](C)C6)c5)cc4F)c23)CC1 [Compound 172, (R)-1-(4-(4-((2-fluoro-4-((2-(2-methylmorpholino)pyridin-4-yl)oxy)phenyl)amino)-1H-pyrazolo[3,4-d]pyrimidin-3-yl)piperidin-1-yl)prop-2-en-1-one] |  |
| > 1000 nM | 200 to 1000 nM | > 1000 nM | 200 to 1000 nM | C=CC(=O)N1CCC(c2n[nH]c3ncnc(Nc4ccc(Oc5ccnc(NC6CCOCC6)c5)cc4F)c23)CC1 [Compound 174, 1-(4-(4-((2-fluoro-4-((2-((tetrahydro-2H-pyran-4-yl)amino)pyridin-4-yl)oxy)phenyl)amino)-1H-pyrazolo[3,4-d]pyrimidin-3-yl)piperidin-1-yl)prop-2-en-1-one] |  |
| > 1000 nM | 200 to 1000 nM | > 1000 nM | 200 to 1000 nM | C=CC(=O)N1CCC(c2n[nH]c3ncnc(Nc4ccc(Oc5ccnc(N6CCC(C#N)C6)c5)cc4F)c23)CC1 (stereo not shown) [Compound 179, 1-(4-(4-((3-(1-acryloylpiperidin-4-yl)-1H-pyrazolo[3,4-d]pyrimidin-4-yl)amino)-3-fluorophenoxy)pyridin-2-yl)pyrrolidine-3-carbonitrile] |  |
| > 1000 nM | 50 to 200 nM | > 1000 nM | 50 to 200 nM | C=CC(=O)N1CCC(c2n[nH]c3ncnc(Nc4ccc(Oc5ccnc(NC(=O)C(C)C)c5)cc4F)c23)CC1 [Compound 182, N-(4-(4-((3-(1-acryloylpiperidin-4-yl)-1H-pyrazolo[3,4-d]pyrimidin-4-yl)amino)-3-fluorophenoxy)pyridin-2-yl)isobutyramide] |  |
| 200 to 1000 nM | 200 to 1000 nM | > 1000 nM | 200 to 1000 nM | C=CC(=O)N1CCC(c2n[nH]c3ncnc(Nc4ccc(Oc5ccn(S(=O)(=O)C(C)C)n5)cc4F)c23)CC1 [Compound 183, 1-(4-(4-((2-fluoro-4-((1-(isopropylsulfonyl)-1H-pyrazol-3-yl)oxy)phenyl)amino)-1H-pyrazolo[3,4-d]pyrimidin-3-yl)piperidin-1-yl)prop-2-en-1-one] |  |
| > 1000 nM | > 1000 nM | > 1000 nM | 200 to 1000 nM | C=CC(=O)N1CCC(c2n[nH]c3ncnc(Nc4ccc(Oc5ccnc(C(=O)NC)c5)cc4F)c23)CC1 [Compound 184, 4-(4-((3-(1-acryloylpiperidin-4-yl)-1H-pyrazolo[3,4-d]pyrimidin-4-yl)amino)-3-fluorophenoxy)-N-methylpicolinamide] |  |
| 200 to 1000 nM | 200 to 1000 nM | > 1000 nM | 50 to 200 nM | C=CC(=O)N1CCC(c2n[nH]c3ncnc(Nc4ccc(O[C@H]5CCCN(S(=O)(=O)c6cccs6)C5)cc4F)c23)CC1 [Compound 186, (S)-1-(4-(4-((2-fluoro-4-((1-(thiophen-2-ylsulfonyl)piperidin-3-yl)oxy)phenyl)amino)-1H-pyrazolo[3,4-d]pyrimidin-3-yl)piperidin-1-yl)prop-2-en-1-one] |  |
| 200 to 1000 nM | 200 to 1000 nM | > 1000 nM | 200 to 1000 nM | C=CC(=O)N1CCC(c2n[nH]c3ncnc(Nc4ccc(O[C@H]5CCCN(S(=O)(=O)c6ccc(OC)nc6)C5)cc4F)c23)CC1 [Compound 187, (S)-1-(4-(4-((2-fluoro-4-((1-((6-methoxypyridin-3-yl)sulfonyl)piperidin-3-yl)oxy)phenyl)amino)-1H-pyrazolo[3,4-d]pyrimidin-3-yl)piperidin-1-yl)prop-2-en-1-one] |  |
| < 50 nM | < 50 nM | > 1000 nM | 50 to 200 nM | C=CC(=O)N1CCC(c2n[nH]c3ncnc(Nc4ccc(OCc5nnsc5Cl)cc4F)c23)CC1 [Compound 195, 1-(4-(4-((4-((5-chloro-1,2,3-thiadiazol-4-yl)methoxy)-2-fluorophenyl)amino)-1H-pyrazolo[3,4-d]pyrimidin-3-yl)piperidin-1-yl)prop-2-en-1-one] |  |
